Reference: patent US10653681B2, “Analgesic compounds” (Recurium IP Holdings, LLC, priority 2016, dated 2020)

Tested on: male ICR mice
Assay: Formalin paw test
Type: in vivo, mouse
Conditions: for Early Phase: early/acute phase (0-10 minutes) after 2% formalin into hind paw; for Late Phase: late/tonic phase (10-35 minutes) after 2% formalin into hind paw
Method: One test compound or the vehicle was administered to each mouse in each test group (8 mice per group). Non-fasted male ICR mice weighing 23±3 g were used. Test compounds were administered at a concentration of 30 mg/kg, 100 mg/kg or 200 mg/kg; morphine was administered at a concentration of 10 mg/kg; and acetaminophen was administered at a concentration of >100 mg/kg. The control group received the vehicle (5% DMSO/15% PEG400/10% HPbCD/0.9% Saline). After 10 minutes, a 2% formalin solution (0.02 mL) was injected into one hind paw (sub-plantar) of each mouse. Responses were measured every 5 minutes after the formalin injection for 35 minutes.
The results in Table A are for oral administration; the results in Table B are for intraperitoneal administration; the results in Table C are for intravenous administration. In Tables A, B, and C, ‘A’ designates <70 licks/sec, ‘B’ designates ≥70 licks/sec and <165 licks/sec, and ‘C’ designates ≥165 licks/sec.

[1] = intraperitoneal administration, 30 mg/kg
[2] = intravenous administration, 100 mg/kg

For `CCn1cc(CN)cn1` [Compound 15], the “Early Phase” value [1] was “B (‘B’ designates ≥70 licks/sec and <165 licks/sec)” and the “Late Phase” value [1] was “A (‘A’ designates <70 licks/sec)”.

For `NCc1nc(C(F)(F)F)cs1` [Compound 8], the “Early Phase” value [1] was “A (‘A’ designates <70 licks/sec)” and the “Late Phase” value [1] was “A (‘A’ designates <70 licks/sec)”.

In the case of `CC(C)(C)c1nnc(CN)s1` [Compound 3], the “Early Phase” value [1] is reported as “A (‘A’ designates <70 licks/sec)” and the “Late Phase” value [1] is reported as “B (‘B’ designates ≥70 licks/sec and <165 licks/sec)”.

For `CC(=O)Nc1ccc(C(C)(C)C)cc1` [Compound 28], the “Early Phase” value (oral administration, 200 mg/kg) was “B (‘B’ designates ≥70 licks/sec and <165 licks/sec)” and the “Late Phase” value (oral administration, 200 mg/kg) was “B (‘B’ designates ≥70 licks/sec and <165 licks/sec)”.

With `Nc1nnc(C(F)(F)F)o1` [Compound 2] the “Early Phase” value [1] was “B (‘B’ designates ≥70 licks/sec and <165 licks/sec)” and the “Late Phase” value [1] was “C (‘C’ designates ≥165 licks/sec)”.

For `CC(C)(C)c1nnc(N)s1` [Compound 4], the “Early Phase” value [1] was “B (‘B’ designates ≥70 licks/sec and <165 licks/sec)” and the “Late Phase” value [1] was “C (‘C’ designates ≥165 licks/sec)”.

For `Nc1nnc(C(F)(F)F)s1` [Compound 5], the “Early Phase” value [1] was “B (‘B’ designates ≥70 licks/sec and <165 licks/sec)” and the “Late Phase” value [1] was “C (‘C’ designates ≥165 licks/sec)”.

`Cc1cc(CN)nn1C` [Compound 17] was tested, and the “Early Phase” value [1] was “B (‘B’ designates ≥70 licks/sec and <165 licks/sec)” and the “Late Phase” value [1] was “B (‘B’ designates ≥70 licks/sec and <165 licks/sec)”.

For `CC(C)(C)c1csc(N)n1` [Compound 10], the “Early Phase” value [1] was “A (‘A’ designates <70 licks/sec)” and the “Late Phase” value [1] was “A (‘A’ designates <70 licks/sec)”.

For `Cc1nc(CN)cs1` [Compound 14], the “Early Phase” value [1] was “B (‘B’ designates ≥70 licks/sec and <165 licks/sec)” and the “Late Phase” value [1] was “C (‘C’ designates ≥165 licks/sec)”.

`CC(C)(C)c1nccc(N)n1` [Compound 19] was tested, and the “Early Phase” value [1] was “B (‘B’ designates ≥70 licks/sec and <165 licks/sec)” and the “Late Phase” value [1] was “C (‘C’ designates ≥165 licks/sec)”.

`NCc1cccc(C(F)(F)F)n1` [Compound 24] was tested, and the “Early Phase” value [1] was “B (‘B’ designates ≥70 licks/sec and <165 licks/sec)” and the “Late Phase” value [1] was “C (‘C’ designates ≥165 licks/sec)”.

`CC(C)(C)c1nnc(N)o1` [Compound 6] was tested, and the “Early Phase” value [1] was “B (‘B’ designates ≥70 licks/sec and <165 licks/sec)” and the “Late Phase” value [1] was “C (‘C’ designates ≥165 licks/sec)”.

For `Cc1coc(N)n1` [Compound 1], the “Early Phase” value [1] was “B (‘B’ designates ≥70 licks/sec and <165 licks/sec)” and the “Late Phase” value [1] was “C (‘C’ designates ≥165 licks/sec)”.

In the case of `Cc1nc(N)oc1C` [Compound 16], the “Early Phase” value [1] is reported as “A (‘A’ designates <70 licks/sec)” and the “Late Phase” value [1] is reported as “A (‘A’ designates <70 licks/sec)”.

With `CC(C)(C)C(=O)Nc1ccc(O)cc1` [Compound 26] the “Early Phase” value (oral administration, 200 mg/kg) was “B (‘B’ designates ≥70 licks/sec and <165 licks/sec)” and the “Late Phase” value (oral administration, 200 mg/kg) was “B (‘B’ designates ≥70 licks/sec and <165 licks/sec)”.

In the case of `CC(=O)NCc1ccc(C(F)(F)F)cc1` [Compound 27], the “Early Phase” value [2] is reported as “A (‘A’ designates <70 licks/sec)” and the “Late Phase” value [2] is reported as “A (‘A’ designates <70 licks/sec)”.

With `NCCc1nc(C(F)(F)F)cs1` [Compound 9] the “Early Phase” value [1] was “A (‘A’ designates <70 licks/sec)” and the “Late Phase” value [1] was “A (‘A’ designates <70 licks/sec)”.

With `Nc1ncc(C(F)(F)F)cn1` [Compound 22] the “Early Phase” value [1] was “B (‘B’ designates ≥70 licks/sec and <165 licks/sec)” and the “Late Phase” value [1] was “C (‘C’ designates ≥165 licks/sec)”.

In the case of `Cc1ncc(CN)s1` [Compound 13], the “Early Phase” value [1] is reported as “B (‘B’ designates ≥70 licks/sec and <165 licks/sec)” and the “Late Phase” value [1] is reported as “C (‘C’ designates ≥165 licks/sec)”.

With `Nc1nccc(C(F)(F)F)n1` [Compound 20] the “Early Phase” value [1] was “B (‘B’ designates ≥70 licks/sec and <165 licks/sec)” and the “Late Phase” value [1] was “C (‘C’ designates ≥165 licks/sec)”.

In the case of `CC(C)(C)c1csc(CN)n1` [Compound 7], the “Early Phase” value [1] is reported as “B (‘B’ designates ≥70 licks/sec and <165 licks/sec)” and the “Late Phase” value [1] is reported as “A (‘A’ designates <70 licks/sec)”.

`NCc1ccc(C(F)(F)F)cc1` [Compound 18] was tested, and the “Early Phase” value [1] was “B (‘B’ designates ≥70 licks/sec and <165 licks/sec)” and the “Late Phase” value [1] was “C (‘C’ designates ≥165 licks/sec)”.

With `CC(=O)Nc1ccc(C(F)(F)F)cc1` [Compound 29] the “Early Phase” value (oral administration, 200 mg/kg) was “A (‘A’ designates <70 licks/sec)” and the “Late Phase” value (oral administration, 200 mg/kg) was “A (‘A’ designates <70 licks/sec)”.

`NCCc1ccc(C(F)(F)F)cc1` [Compound 25] was tested, and the “Early Phase” value [1] was “A (‘A’ designates <70 licks/sec)” and the “Late Phase” value [1] was “B (‘B’ designates ≥70 licks/sec and <165 licks/sec)”.

For `Nc1cccc(C(F)(F)F)n1` [Compound 21], the “Early Phase” value [1] was “B (‘B’ designates ≥70 licks/sec and <165 licks/sec)” and the “Late Phase” value [1] was “C (‘C’ designates ≥165 licks/sec)”.
